How the values were obtained:
mitochondria = conditions: in vitro and in mice for 6p; cited from earlier work
P. aeruginosa AR-0239 = experiment: colistin MIC in absence or presence of RMA; assay type: cell-based; conditions: for fold reduction of colistin MIC: compound at 1 μg/mL, AR-0239
P. aeruginosa AR-0257 = experiment: colistin MIC in absence or presence of RMA; assay type: cell-based; conditions: for fold reduction of colistin MIC: compound at 1 μg/mL, AR-0257
[1] = test system: 8 different MDR Gram-negative bacteria; experiment: colistin MIC across the panel of strains; assay type: cell-based; conditions: for Colistin MIC in the presence of compound, strains that contain the mcr genes: compound at 1 μg/mL
S. Typhimurium AR-0635 = experiment: colistin MIC in absence or presence of RMA; assay type: cell-based, Salmonella Typhimurium; conditions: colistin alone; mcr-4
A. baumannii AR-0310 = experiment: colistin MIC in absence or presence of RMA; assay type: cell-based; conditions: colistin alone
E. coli AR-0493 = experiment: colistin MIC in absence or presence of RMA; assay type: cell-based; conditions: colistin alone; mcr-1
K. pneumoniae AR-0497 = experiment: colistin MIC in absence or presence of RMA; assay type: cell-based; conditions: colistin alone; mcr-1
E. coli AR-0538 = experiment: colistin MIC in absence or presence of RMA; assay type: cell-based; conditions: colistin alone; mcr-2
S. Typhimurium AR-0539 = experiment: colistin MIC in absence or presence of RMA; assay type: cell-based, Salmonella Typhimurium; conditions: colistin alone; mcr-3

## Oc1nc2nonc2nc1Nc1ccc(OC(F)(F)F)cc1 [6p]
mitochondria
  mitochondrial uncoupler activity: one of the most potent uncouplers

## Clc1ccc(Nc2nc3nonc3nc2Nc2ccc(Cl)cc2)cc1 [5m]
P. aeruginosa AR-0239
  fold reduction of colistin MIC: 4 folds
P. aeruginosa AR-0257
  fold reduction of colistin MIC: 4 folds
[1]
  Colistin MIC in the presence of compound, strains that contain the mcr genes: 1 to 2 µg/mL

## Colistin
S. Typhimurium AR-0635
  Colistin MIC: 32 µg/mL
P. aeruginosa AR-0239; colistin alone
  Colistin MIC: 4 µg/mL
A. baumannii AR-0310
  Colistin MIC: 32 µg/mL
P. aeruginosa AR-0257; colistin alone
  Colistin MIC: 8 µg/mL
E. coli AR-0493
  Colistin MIC: 8 µg/mL
K. pneumoniae AR-0497
  Colistin MIC: 8 µg/mL
E. coli AR-0538
  Colistin MIC: 8 µg/mL
S. Typhimurium AR-0539
  Colistin MIC: 8 µg/mL
[1]; colistin alone, 8 strains
  Colistin MIC, range over all strains: 4 to 32 µg/mL

## FC(F)(F)Oc1ccc(Nc2nc3nonc3nc2Nc2ccc(OC(F)(F)F)cc2)cc1 [5p]
mitochondria
  mitochondrial uncoupler activity: poor uncoupler

## Clc1cccc(Nc2nc3nonc3nc2Nc2cccc(Cl)c2)c1 [5l]
P. aeruginosa AR-0239
  fold reduction of colistin MIC: 4 folds
P. aeruginosa AR-0257
  fold reduction of colistin MIC: 4 folds
[1]
  Colistin MIC in the presence of compound, strains that contain the mcr genes: 1 to 2 µg/mL
